Experimental data taken from PubChem BioAssay (NCI).
Values joined by “and” are separate entries in the source; they are usually repeats but may differ in a detail not shown here. Equal entries are not always repeated.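 Step 1: Grow cells in 96-well plates. Step 2: Expose to compound for 48 hours at 5 concentrations. Step 3: Interpolate endpoints linearly; if unreached, use highest concentration. Abbreviation: GI50, concentration required for 50% inhibition of growth. TGI: total growth inhibition.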

Key:
Assay in all cases: NCI tumour cell line growth inhibition, 48 h
SK-MEL-5 melanoma = test system: SK-MEL-5 melanoma
OVCAR-3 ovarian = test system: OVCAR-3 ovarian
K-562 leukemia = test system: K-562 leukemia
LOX IMVI melanoma = test system: LOX IMVI melanoma
CCRF-CEM leukemia = test system: CCRF-CEM leukemia
EKVX NSCLC = test system: EKVX NSCLC
SNB-19 CNS = test system: SNB-19 CNS
SN12C renal = test system: SN12C renal
IGROV1 ovarian = test system: IGROV1 ovarian
SF-539 CNS = test system: SF-539 CNS

| Compound | TGI (SK-MEL-5 melanoma) [µM] | TGI (OVCAR-3 ovarian) [µM] | TGI (K-562 leukemia) | TGI (LOX IMVI melanoma) [µM] | TGI (CCRF-CEM leukemia) [µM] | TGI (EKVX NSCLC) | TGI (SNB-19 CNS) [µM] | TGI (SN12C renal) [µM] | TGI (IGROV1 ovarian) [µM] | TGI (SF-539 CNS) [µM] | GI50 (OVCAR-3 ovarian) [µM] | GI50 (LOX IMVI melanoma) [µM] | GI50 (EKVX NSCLC) [µM] | GI50 (SNB-19 CNS) [µM] | GI50 (SN12C renal) [µM] | GI50 (K-562 leukemia) |
| --- | --- | --- | --- | --- | --- | --- | --- | --- | --- | --- | --- | --- | --- | --- | --- | --- |
| COc1cc(/C=C2\N=C(c3ccccc3)N(c3ccc(C(=O)c4ccccc4)cc3N3C(=O)/C(=C/c4cc(OC)c(OC)c(OC)c4)N=C3c3ccccc3)C2=O)cc(OC)c1OC | 21.2 | 16.6 | 68.7 µM | 39.2 | 39.8 | 76.7 µM | > 100 | 89.1 | > 100 | – | – | – | – | – | – | – |
| N#Cc1nc(Cc2cccs2)oc1N | > 100 | – | > 100 µM | > 100 | > 100 | > 100 µM | > 100 | > 100 | > 100 | – | – | – | – | – | – | – |
| CC(=O)Nc1oc(C)nc1C#N | > 100 | – | > 100 µM | > 100 | > 100 | > 100 µM | > 100 | > 100 | > 100 | – | – | – | – | – | – | – |
| COc1cccc(C2c3cc4c(cc3OC(N3CCOCC3)C2C)OCO4)c1 (configuration not stated) | 15.6 | 38.6 | > 100 µM | 18.1 | – | 87.7 µM | > 100 | > 100 | > 100 | – | – | – | – | – | – | – |
| O=C1C(=O)C(CCCO)(CCCO)CCCCCCCCC1(CCCO)CCCO | > 100 | > 100 | 69.6 µM | > 100 | – | > 100 µM | > 100 | > 100 | > 100 | > 100 | – | – | – | – | – | – |
| Cn1c(=O)c2[nH]cnc2n(C)c1=O | > 100 | > 100 | > 100 µM | > 100 | > 100 | > 100 µM | – | > 100 | > 100 | – | – | – | – | – | – | – |
| COC(=O)C[C@H]1[C@]2(C)C3=C(C)[C@H](c4ccoc4)CC3O[C@@H]2[C@@H]2OC(=O)[C@]3(C)CCC(=O)[C@@]1(C)[C@@H]23 (some centres not stated) | > 100 | > 100 | > 100 µM | > 100 | 45.1 | – | – | > 100 | > 100 | – | – | – | – | – | – | – |
| OCC1=C[C@@](COCc2ccccc2)(OCc2ccccc2)[C@@H](OCc2ccccc2)[C@@H]1OCc1ccccc1 | 30.5 | 27.3 | 50.6 µM | 21.9 | 11 | 51.4 µM | > 100 | 10.3 | 38.5 | – | – | – | – | – | – | – |
| CNc1ccc([N+](=O)[O-])cc1C(=O)N1CCC[C@H]1CO | > 100 | – | > 100 µM | > 100 | > 100 | > 100 µM | > 100 | > 100 | > 100 | – | – | – | – | – | – | – |
| CC[N+]1(C)CCC(O)(/C=C/c2ccc(Cl)c(Cl)c2)C(C(=O)/C=C/c2ccc(Cl)c(Cl)c2)C1 (configuration not stated) | 7.68 | 10.6 | 4.07 µM | 2.84 | – | 23.3 µM | 17.3 | 3.61 | 7.8 | 9.13 | – | – | – | – | – | – |
| O=c1oc2ccccc2cc1-c1nc2ccccc2s1 | > 75.1 | 20.7 | – | 24.2 | – | 39.2 µM | – | > 50.7 | 18.6 | – | – | – | – | – | – | – |
| CN(NC(=O)/C(=C/C=C/c1ccccc1)NC(=O)c1ccccc1)C1=C(Cl)C(=O)[N+](c2ccccc2)=CC1 | 27.4 | 44.9 | 49.9 µM | 32.3 | – | > 100 µM | 80.2 | 66 | 46.8 | 38 | – | – | – | – | – | – |
| COC(=O)C1CC(C=O)=C(SC)N1 (configuration not stated) | > 50 | > 50 | > 50 µM | – | – | > 50 µM | > 50 | – | > 50 | – | – | – | – | – | – | – |
| CCCCCCCCCC[C@@H](O)[C@H]1CC[C@@H]([C@H]2CC[C@H]([C@H](O)CCCCCCCCCC[C@@H]3CC(CC(C)=O)C(=O)O3)O2)O1 (some centres not stated) | 16.2 | 39.4 | – | 27.3 | > 100 | > 100 µM | > 100 | – | > 100 | – | 18.1 | 0.152 | 19.2 | 18.3 | 26.7 | – |
| Cc1cc(=O)[nH]c(S(=O)(=O)NC(=S)Nc2ccc(Br)cc2)n1 | > 100 | > 100 | – | – | – | > 100 µM | > 100 | > 100 | > 100 | > 100 | – | – | – | – | – | – |
| CC(C)(C)OC(=O)N[C@@H](Cc1ccccc1)C(=O)N1CC[C@@H](C(=O)N2[C@H]3CC4CC[C@@]3(CS2(=O)=O)C4(C)C)N1 | 75 | > 100 | > 100 µM | > 100 | > 100 | – | > 100 | > 100 | – | – | – | – | – | – | – | – |
| O=C1/C(=C/c2ccc(Cl)c(Cl)c2)CN(C(=O)CCN2CCOCC2)C/C1=C\c1ccc(Cl)c(Cl)c1 | – | – | 0.585 µM and 2.99 µM | 1.15 | – | 4.35 µM and 6.41 µM and 3.09 µM | – | – | – | – | 1.08 | – | 1.37 | – | – | 0.259 µM and 0.315 µM |
| COc1cccc2c1C(=O)c1c(O)c3c(c(O)c1C2=O)C[C@](O)(C(=O)CO)CC3OC1CC(N)C(OC2CCCCO2)C(C)O1 (some centres not stated) | 1.34 | 4.56 | 6.5 µM | 1.66 | – | 3.43 µM | 4.16 | 3.12 | 11.4 | 1.41 | – | – | – | – | – | – |
| CCn1c2ccccc2c2cc(NC(=O)c3c(C)[nH]c(=O)[nH]c3=S)ccc21 | > 100 | > 100 | > 100 µM | > 100 | > 100 | – | > 100 | > 100 | – | – | – | – | – | – | – | – |
